{
  "source": "patent US20080155704A1",
  "about": "“Methods and Compositions for Determining in vivo Activity of BiP” (King's College London, priority 2006, published 2008)",
  "key": {"IL-8": {"tested_on": "IL-8", "experiment": "IL-8 production by dendritic cells (cytometric bead array)", "type": "cell-based, human", "details": "iDC and mDC, BiP 20 μg/ml, 7d culture (FIG. 7)", "source_text": "In a series of experiments IL-8 was detected using cytometric bead array (Becton Dickinson) where the mean fluorescence intensity (MFI) is proportional to the concentration of cytokine."}, "IL-10": {"tested_on": "IL-10", "experiment": "IL-10 production by dendritic cell cultures (ELISA)", "type": "cell-based, human", "details": "for IL-10 production: n=8", "experimental": "(§1) Supernatant samples were collected on day 1, 3 and 7 for iDC and from the final cultures of the T cells taken from the iDC/mDC-T cell allogeneic test system and set up with autologous cells to determine if there was any regulatory activity. The samples were aliquoted and frozen at −70° C. until required. Production IL-10 was quantified by ELISA using paired antibodies and recombinant standards (PharMingen, Oxford, UK) according to the recommendations of the manufacturer. In addition some were analysed by cytometric bead assay (BD, Oxford, UK) according to the manufacturers instructions.\nTo neutralize IL-10 within the cultures anti-IL-10 antibody (ATCC, Rockville, USA) was added at day 0 (5 μg/ml) to GM-CSF and IL-4 treated cultures in the presence and absence of BiP (20 μg/ml). Two specific cell-permeable inhibitors of the MAPK intracellular signalling pathways were used. SB203580 (SB)(10 μM)((Calbiochem, Darmstadt, Germany) inhibits p38 MAPK, and PD98059 (PD) (10 μM)(Calbiochem), an inhibitor of MAPK extracellular signal regulated kinase (ERK), were tested. MO were pre-treated with the inhibitors for 2 h before adding GM-CSF and IL-4 in the presence or absence of BiP.\nas §1, with “of the pro-inflammatory cytokine, TNFα, and the anti-inflammatory cytokine, IL-10,” for “IL-10”"}},
  "data": [
    {"substance": "BiP: 78 kD endoplasmic reticulum chaperone protein as disclosed in WO 00/21995; recombinant human protein", "values": [
      {"measurement": "IL-8 production (MFI) in culture supernatants", "setting": "IL-8", "result": "suppressed IL-8 production"},
      {"measurement": "IL-10 production by early DC(BiP) cultures", "setting": "IL-10; 3d GM-CSF and IL-4 with BiP 20 μg/ml, inhibitors 10 μM, anti-IL-10 added at day 0 (FIG. 13D)", "result": "significantly more IL-10"},
      {"measurement": "IL-10 production", "setting": "IL-10; iDC(BiP), 7d culture", "result": "819.1 ± 688", "unit": "pg/mL"},
      {"measurement": "IL-10 production", "setting": "IL-10; mDC(BiP), 7d culture with LPS final 2d", "result": "970.1 ± 684", "unit": "pg/mL"},
      {"measurement": "IL-10 production by BiP-treated DC", "setting": "IL-10; versus untreated DC (FIG. 1)", "result": "significantly more IL-10"}
    ]}
  ]
}
